Experimental data published in patent US20110250134A1, “SUSTAINED RELEASE NITRIC OXIDE FROM LONG LIVED CIRCULATING NANOPARTICLES” (priority 2010, published 2011).

Assay: Total NO released (NO agents decomposition)
Assay type: physicochemical
Experimental: Total NO released (NO agents decomposition). Gaseous NO levels were measured using a chemiluminescent NO analyzer (Sievers NO analyzer, Model 280i, Boulder, Colo.). […] Solutions were continuously bubbled with pure nitrogen (0.2 L/min). The gas phase was collected into the NO analyzer for a minute every 10 min., and the excess flow was evacuated through an underwater seal (1 cm H2O).

Row | NO liberated experimentally | Compound
1 | 10.7 μmols of NO/mg | NCCN(CCN)/[N+]([O-])=N/O [DETA NONOate, Diethylenetriamine NONOate]
2 | 9.4 µmol/mg | NCCCN(CCCN)/[N+]([O-])=N/O [DPTA NONOate, Dipropylenetriamine NONOate]
